Laboratory results taken from patent publication US20260223850A1, “SUBSTITUTED PYRROLIDONE COMPOUND, PREPARATION METHOD THEREFOR, COMPOSITION AND APPLICATION THEREOF” (QINGDAO KINGAGROOT CHEMICAL COMPOUND CO., LTD., priority 2023, published 2026).
Read-outs that look alike come from different tables or passages of the source.

Key:
Format in all cases: in vivo
[1] = test system: weeds; assay: Activity assay of compositions, soil sealing treatment (S); details: for pest or weed control at 7.5 g/ha: B 7.5 g a.i./ha; for pest or weed control at 300 g/ha: B 300 g a.i./ha
From the text: The required active ingredient B was purchased from a reagent company or a technical material manufacturer or synthesized by a conventional method. The technical materials were all dissolved with acetone solvents and diluted with aqueous solution of 0.1% Tween® 80 emulsifier, which should be used immediately after dilution.
The test soil was quantitatively filled to ¾ of a pot, and then watered from the bottom of the pot to completely wet the soil to saturation. The seeds of the test weeds were accelerated to Just germinate, and then evenly and quantitatively broadcasted on the soil surface, covered with 0.5-1 cm soil according to the sizes of the seeds, and ready for use 72 hours after broadcasting.
Each treatment was repeated 4 times. Four pots were treated each time with 20 weed seeds per pot.
The seeds were planted in a 20 cm*30 cm square box. Water was added to 2-3 cm deep after sowing, then injected with the drug agent using a syringe, stirred evenly, and left to stand for 2 days to dry naturally. The soil was kept moist afterwards.
A method for investigating absolute numbers was employed. The whole seedlings of the survival weeds were cut along the soil surface with a blade, and the fresh weight of the weeds was weighed by an analytical balance. For dead weeds, the fresh weight thereof was considered zero.
The investigation was performed 21 days after the treatment for once in total.
The theoretical fresh weight inhibition rate of a mixed combination of each treatment was calculated by the Gowing method (E0═X+Y−X*Y/100), then compared with the measured inhibition rate (E) to evaluate the type of the combined action of the combination of the two on weeds. The combined action was a synergistic effect when E−E0 >10%; an antagonistic effect when E−E0<−10%; an additional effect when −10%≤E−E0≤10%. An optimal ratio was determined according to factors such as actual control effects, characteristics of herbicides, balance of the formulation, etc.

[2] = test system: Digitaria sanguinalis; assay: Seedling stage sealing experiment for water-seeding; details: 120 g a.i./ha, seedling stage sealing, 15 days, fresh weight control rate
Procedure, shortened: (§1)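 Read-out: 0–9 damage level from fresh-weight control rate (9 = completely dead, 1 = under 10%, 0 = no effect), averaged over triplicates, taken 15 days after spraying. Doses were 120, 60, 30 and 15 g a.i./ha, acetone/water solution, spray tower.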

[3] = test system: Echinochloa crusgalli; assay: as above; details: 120 g a.i./ha, seedling stage sealing, 15 days, fresh weight control rate
[4] = test system: Leptochloa chinensis; assay: as above; details: 120 g a.i./ha, 15 days, fresh weight control rate
Procedure, shortened: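 Seeds sown in soil-filled bowls kept moist in water-filled boxes; compound in acetone diluted with water and spray-applied at 120, 60, 30 and 15 g a.i./ha, triplicate. After 15 days in greenhouse, fresh-weight growth control scored on a 0–9 scale (9 = dead, 0 = no effect), averaged.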

[5] = test system: Echinochloa phyllopogon; assay: as above; details: 120 g a.i./ha, seedling stage sealing, 15 days, fresh weight control rate
Procedure, shortened: as §1

[6] = test system: Huaidao (rice cultivar); assay: Seedling stage sealing experiment for water-seeding (crop safety); details: 120 g a.i./ha, seedling stage sealing, 15 days, fresh weight control rate
Procedure, shortened: as §1

[7] = soil, Rotala indica, S, read-out: Control effect of B applied alone in a corresponding dose (%)
[8] = soil, Rotala indica, S, B 15 g a.i./ha, read-out: Control effect of B applied alone in a corresponding dose (%)
[9] = soil, Paspalum distichum, S, B 30 g a.i./ha, read-out: Control effect of B applied alone in a corresponding dose (%)
[10] = soil, Paspalum distichum, S, B 60 g a.i./ha, read-out: Control effect of B applied alone in a corresponding dose (%)
[11] = soil, Paspalum distichum, S, read-out: Control effect of B applied alone in a corresponding dose (%)
[12] = soil, Paspalum distichum, S, B 15 g a.i./ha, read-out: Control effect of B applied alone in a corresponding dose (%)
[13] = soil, Rotala indica, S, B 150 g a.i./ha, read-out: Control effect of B applied alone in a corresponding dose (%)
[14] = Rotala indica, soil, read-out: Control effect of B applied alone in a corresponding dose (%)
[15] = Rotala indica, S, B 15 g a.i./ha
[16] = Rotala indica, S, B 30 g a.i./ha

Compound | Digitaria sanguinalis activity level (growth control rate) [2] | Echinochloa crusgalli activity level (growth control rate) [3] | Leptochloa chinensis activity level (growth control rate) [4] | also measured
CCc1ccc(-n2cnc(C(F)(F)F)n2)nc1Oc1cccc(C(F)(F)F)c1 |  |  |  | pest or weed control at 7.5 g/ha [1, 7]: 47.1%; pest or weed control at 15 g/ha [1, 8]: 63.6%
CCC[S@@+]([O-])c1c(C(F)(F)F)ccc(C(=O)Nc2nnc(C)o2)c1F |  |  |  | pest or weed control at 15 g/ha [1, 8]: 35.8%; pest or weed control at 30 g/ha ([1]; soil, Rotala indica, S, B 30 g a.i./ha, read-out: Control effect of B applied alone in a corresponding dose (%)): 46.6%
COC(=O)[C@@H](C)O/N=C/c1cc(-n2c(=O)cc(C(F)(F)F)n(C)c2=O)c(F)cc1Cl |  |  |  | pest or weed control at 7.5 g/ha [1, 7]: 47.9%; pest or weed control at 15 g/ha [1, 8]: 56.6%
CC1(C)CON(Cc2ccc(Cl)cc2Br)C1=O |  |  |  | pest or weed control at 30 g/ha [1, 9]: 37.8%; pest or weed control at 60 g/ha [1, 10]: 51.3%
CC(C)C12CCC(C)(O1)C(OCc1c(F)cccc1Br)C2 (stereo not shown) |  |  |  | pest or weed control at 7.5 g/ha [1, 11]: 46.3%; pest or weed control at 15 g/ha [1, 12]: 57.4%
Cc1ccccc1CO[C@@H]1C[C@@]2(C(C)C)CC[C@]1(C)O2 (racemic) [Cinmethylin, cinmethylin] |  |  |  | pest or weed control at 7.5 g/ha [1, 11]: 34.8%; pest or weed control at 15 g/ha [1, 12]: 47.6%
CN1C[C@H](c2cc(F)cc(F)c2)[C@@H](C(=O)Nc2cnn(C)c2Cl)C1=O [115′] | 8 (Level 8: growth control rate greater than or equal to 90% and less than 100%) | 9 | 8 (Level 8: growth control rate greater than or equal to 90% and less than 100%) | 
Cc1cccc([C@H]2CN(C)C(=O)[C@@H]2C(=O)Nc2cnn(C(F)F)c2Cl)c1 [131′] | 9 | 9 | 9 | Echinochloa phyllopogon activity level (growth control rate) [5]: 9
Cc1cccc([C@H]2CN(C)C(=O)[C@@H]2C(=O)Nc2cnn(C)c2C2CC2)c1 [139′] | 7 (Level 7: growth control rate greater than or equal to 80% and less than 90%) | 9 | 9 | 
C=CCn1ncc(NC(=O)[C@H]2C(=O)N(C)C[C@@H]2c2cccc(C(F)(F)F)c2)c1Cl [162′] | 8 (Level 8: growth control rate greater than or equal to 90% and less than 100%) | 9 | 9 | 
CN1C[C@H](c2cc(C(F)(F)F)cc(C(F)(F)F)c2)[C@@H](C(=O)Nc2cnn(C)c2Cl)C1=O [295′] | 9 | 7 (Level 7: growth control rate greater than or equal to 80% and less than 90%) | 9 | Echinochloa phyllopogon activity level (growth control rate) [5]: 6 (Level 6: growth control rate greater than or equal to 70% and less than 80%)
COc1cc(F)cc([C@H]2CN(C)C(=O)[C@@H]2C(=O)Nc2cnn(C)c2Cl)c1 [298′] | 9 | 7 (Level 7: growth control rate greater than or equal to 80% and less than 90%) | 7 (Level 7: growth control rate greater than or equal to 80% and less than 90%) | Echinochloa phyllopogon activity level (growth control rate) [5]: 6 (Level 6: growth control rate greater than or equal to 70% and less than 80%)
Cc1ccc([C@H]2CN(C)C(=O)[C@@H]2C(=O)Nc2cnn(C)c2Cl)cc1F [313′] | 9 | 9 | 9 | 
CCOCN(C(=O)CCl)c1c(C)cccc1CC [Acetochlor, acetochlor] |  |  |  | pest or weed control at 150 g/ha [1, 13]: 46.2%; pest or weed control at 300 g/ha [1, 7]: 66.5%
COP(=S)(OC)SCC(=O)N(c1ccc(Cl)cc1)C(C)(C)C [Anilofos, anilofos] |  |  |  | pest or weed control at 75 g/ha [1, 14]: 22.4%; pest or weed control at 150 g/ha [1, 14]: 31.8%
CS(=O)(=O)c1ccc(C(=O)C2=C(Sc3ccccc3)C3CCC(C3)C2=O)c(Cl)c1 (stereo not shown) [Benzobicyclon, benzobicyclon] |  |  |  | Control effect of B applied alone in a corresponding dose (%) [1, 15]: 32.8%; Control effect of B applied alone in a corresponding dose (%) [1, 16]: 49.6%
Cc1nn(C)cc1C(=O)Oc1c(C(=O)c2ccc(C(F)(F)F)cc2S(C)(=O)=O)c(C)nn1C [Bipyrazone, bipyrazone] |  |  |  | Control effect of B applied alone in a corresponding dose (%) [1, 15]: 24.5%; Control effect of B applied alone in a corresponding dose (%) [1, 16]: 38.8%
CC1(C)CON(Cc2ccc(Cl)cc2Cl)C1=O [Bixlozone, bixlozone] |  |  |  | Control effect of B applied alone in a corresponding dose (%) ([1]; Paspalum distichum, S, B 30 g a.i./ha): 41.7%; Control effect of B applied alone in a corresponding dose (%) ([1]; Paspalum distichum, S, B 60 g a.i./ha): 52.8%
CCCCOCN(C(=O)CCl)c1c(CC)cccc1CC [Butachlor, butachlor] |  |  |  | pest or weed control at 150 g/ha [1, 13]: 42.4%; pest or weed control at 300 g/ha [1, 7]: 58.6%
CC1(C)CON(Cc2ccccc2Cl)C1=O [Clomazone, clomazone] |  |  |  | pest or weed control at 30 g/ha [1, 9]: 44.3%; pest or weed control at 60 g/ha [1, 10]: 51.5%
Cc1ccc(C2CN(C)C(=O)C2C(=O)Nc2cnn(C)c2Cl)cc1C(F)(F)F (stereo not shown) [Compound 56] | 9 | 9 | 9 | Echinochloa phyllopogon activity level (growth control rate) [5]: 6 (Level 6: growth control rate greater than or equal to 70% and less than 80%)
CN1CC(c2cc(F)c(F)c(F)c2)C(C(=O)Nc2cnn(C)c2Cl)C1=O (stereo not shown) [Compound 114] | 9 | 9 | 9 | Echinochloa phyllopogon activity level (growth control rate) [5]: 6 (Level 6: growth control rate greater than or equal to 70% and less than 80%)
Cc1cc(C)cc(C2CN(C)C(=O)C2C(=O)Nc2cnn(C)c2Cl)c1 (stereo not shown) [Compound 117] | 9 | 9 | 9 | Echinochloa phyllopogon activity level (growth control rate) [5]: 6 (Level 6: growth control rate greater than or equal to 70% and less than 80%); Huaidao (rice cultivar) plant damage level [6]: 0
COc1c(Cl)ccc(C2CN(C)C(=O)C2C(=O)Nc2cnn(C)c2Cl)c1F (stereo not shown) [Compound 118] | 9 | 9 | 6 (Level 6: growth control rate greater than or equal to 70% and less than 80%) | Echinochloa phyllopogon activity level (growth control rate) [5]: 6 (Level 6: growth control rate greater than or equal to 70% and less than 80%)
CN1CC(c2cccc(C(F)(F)F)c2)C(C(=O)Nc2cnn(C)c2)C1=O (stereo not shown) [Compound 156] | 7 (Level 7: growth control rate greater than or equal to 80% and less than 90%) | 6 (Level 6: growth control rate greater than or equal to 70% and less than 80%) |  | Echinochloa phyllopogon activity level (growth control rate) [5]: 6 (Level 6: growth control rate greater than or equal to 70% and less than 80%); Huaidao (rice cultivar) plant damage level [6]: 0
CCCCOc1cccc(C2CN(C)C(=O)C2C(=O)Nc2cnn(C)c2Cl)c1 (stereo not shown) [Compound 221] | 9 |  | 9 | 
CN1CC(c2ccc(Cl)s2)C(C(=O)Nc2cnn(C)c2Cl)C1=O (stereo not shown) [Compound 339] | 7 (Level 7: growth control rate greater than or equal to 80% and less than 90%) | 9 | 6 (Level 6: growth control rate greater than or equal to 70% and less than 80%) | 
